# Reference: PubChem BioAssay (NCI)
#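 GI50 = concentration required for 50% inhibition of growth. TGI: concentration producing complete growth inhibition.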
# Columns and labels:
# Experiment in all cases: NCI tumour cell line growth inhibition, 384-well format
# [1] = tested on: 786-0 renal
# [2] = tested on: A498 renal
# [3] = tested on: A549 NSCLC
# [4] = tested on: ACHN renal
# [5] = tested on: BT-549 breast
# [6] = tested on: CAKI-1 renal
# [7] = tested on: CCRF-CEM leukemia
# [8] = tested on: COLO 205 colon
# [9] = tested on: DU-145 prostate
# [10] = tested on: HCC-2998 colon
# [11] = tested on: HCT-116 colon
# [12] = tested on: HCT-15 colon
# [13] = tested on: HL-60(TB) leukemia
# [14] = tested on: HOP-62 NSCLC
# [15] = tested on: HOP-92 NSCLC
# [16] = tested on: HT29 colon
# [17] = tested on: IGROV1 ovarian
# [18] = tested on: K-562 leukemia
# [19] = tested on: KM12 colon
# [20] = tested on: LOX IMVI melanoma
# [21] = tested on: M14 melanoma
# [22] = tested on: MALME-3M melanoma
# [23] = tested on: MCF7 breast
# [24] = tested on: MDA-MB-231 breast
# [25] = tested on: MDA-MB-435 melanoma
# [26] = tested on: MDA-MB-468 breast
# [27] = tested on: MOLT-4 leukemia
# [28] = tested on: NCI-H226 lung
# [29] = tested on: NCI-H23 lung
# [30] = tested on: NCI-H322M lung
# [31] = tested on: NCI-H460 NSCLC
# [32] = tested on: NCI-H522 lung
# [33] = tested on: NCI/ADR-RES ovarian
# [34] = tested on: OVCAR-3 ovarian
# [35] = tested on: OVCAR-4 ovarian
# [36] = tested on: OVCAR-5 ovarian
# [37] = tested on: OVCAR-8 ovarian
# [38] = tested on: PC-3 prostate
# [39] = tested on: RPMI-8226 leukemia
# [40] = tested on: RXF 393 renal
# [41] = tested on: SF-268 CNS
# [42] = tested on: SF-295 CNS
# [43] = tested on: SF-539 CNS
# [44] = tested on: SK-MEL-2 melanoma
# [45] = tested on: SK-MEL-28 melanoma
# [46] = tested on: SK-MEL-5 melanoma
# [47] = tested on: SK-OV-3 ovarian
# [48] = tested on: SN12C renal
# [49] = tested on: SNB-19 CNS
# [50] = tested on: SR leukemia
# [51] = tested on: SW-620 colon
# [52] = tested on: T-47D breast
# [53] = tested on: TK-10 renal
# [54] = tested on: U251 glioblastoma
# [55] = tested on: UACC-257 melanoma
# [56] = tested on: UACC-62 melanoma
# [57] = tested on: UO-31 renal
# [58] = tested on: EKVX NSCLC
# [59] = tested on: HS 578T breast
# [60] = tested on: SNB-75 CNS
compound,measurement,setting,value
O=C(NS(=O)(=O)c1ccc(NC[C@H]2COCCO2)c([N+](=O)[O-])c1)c1ccc(N2CCN(CC3=C(c4ccc(Cl)cc4)CC4(CCC4)CC3)CC2)cc1Oc1cnc2[nH]ccc2c1,GI50,[1],2410 nM
same,TGI,[1],6.75 µM
same,GI50,[2],1860 nM
same,TGI,[2],5090 nM
same,GI50,[3],2340 nM
same,TGI,[3],7.54 µM
same,GI50,[4],2370 nM
same,TGI,[4],6.63 µM
same,GI50,[5],2630 nM
same,TGI,[5],5740 nM
same,GI50,[6],2170 nM
same,TGI,[6],5.11 µM
same,GI50,[7],1340 nM
same,TGI,[7],2640 nM
same,GI50,[8],2260 nM
same,TGI,[8],4.27 µM
same,GI50,[9],2820 nM
same,TGI,[9],7.77 µM
same,GI50,[10],1810 nM
same,TGI,[10],3370 nM
same,GI50,[11],2300 nM
same,TGI,[11],5470 nM
same,GI50,[12],2020 nM
same,TGI,[12],4070 nM
same,GI50,[13],23.9 nM
same,TGI,[13],1240 nM
same,GI50,[14],2240 nM
same,TGI,[14],5190 nM
same,GI50,[15],1560 nM
same,TGI,[15],3.1 µM
same,GI50,[16],2320 nM
same,TGI,[16],5170 nM
same,GI50,[17],1840 nM
same,TGI,[17],4.31 µM
same,GI50,[18],3.32 µM
same,TGI,[18],11.1 µM
same,GI50,[19],2510 nM
same,TGI,[19],6.15 µM
same,GI50,[20],2800 nM
same,TGI,[20],5300 nM
same,GI50,[21],2100 nM
same,TGI,[21],4140 nM
same,GI50,[22],2280 nM
same,TGI,[22],4370 nM
same,GI50,[23],2650 nM
same,TGI,[23],8.8 µM
same,GI50,[24],2060 nM
same,TGI,[24],4320 nM
same,GI50,[25],2380 nM
same,TGI,[25],5030 nM
same,GI50,[26],1830 nM
same,TGI,[26],3860 nM
same,GI50,[27],814 nM
same,TGI,[27],2080 nM
same,GI50,[28],1980 nM
same,TGI,[28],4200 nM
same,GI50,[29],1890 nM
same,TGI,[29],4.05 µM
same,GI50,[30],2790 nM
same,TGI,[30],6.65 µM
same,GI50,[31],1650 nM
same,TGI,[31],3980 nM
same,GI50,[32],3000 nM
same,TGI,[32],7.32 µM
same,GI50,[33],4.66 µM
same,TGI,[33],16.7 µM
same,GI50,[34],2000 nM
same,TGI,[34],3910 nM
same,GI50,[35],2640 nM
same,TGI,[35],6.47 µM
same,GI50,[36],2150 nM
same,TGI,[36],4280 nM
same,GI50,[37],2990 nM
same,TGI,[37],9.88 µM
same,GI50,[38],2120 nM
same,TGI,[38],5150 nM
same,GI50,[39],1020 nM
same,TGI,[39],2180 nM
same,GI50,[40],1340 nM
same,TGI,[40],2940 nM
same,GI50,[41],3.32 µM
same,TGI,[41],8.91 µM
same,GI50,[42],1390 nM
same,TGI,[42],3240 nM
same,GI50,[43],1970 nM
same,TGI,[43],4220 nM
same,GI50,[44],1990 nM
same,TGI,[44],3.69 µM
same,GI50,[45],2530 nM
same,TGI,[45],5490 nM
same,GI50,[46],1810 nM
same,TGI,[46],3330 nM
same,GI50,[47],2910 nM
same,TGI,[47],7.58 µM
same,GI50,[48],2520 nM
same,TGI,[48],7.27 µM
same,GI50,[49],3970 nM
same,TGI,[49],14.7 µM
same,GI50,[50],1130 nM
same,TGI,[50],2350 nM
same,GI50,[51],3.96 µM
same,TGI,[51],12.9 µM
same,GI50,[52],2920 nM
same,TGI,[52],9.74 µM
same,GI50,[53],2690 nM
same,TGI,[53],8.48 µM
same,GI50,[54],2340 nM
same,TGI,[54],5350 nM
same,GI50,[55],2170 nM
same,TGI,[55],4.31 µM
same,GI50,[56],1960 nM
same,TGI,[56],3780 nM
same,GI50,[57],2100 nM
same,TGI,[57],4.75 µM
FC(F)(F)c1cc(-c2ncn(/C=C\c3nnco3)n2)cc(C(F)(F)F)c1,GI50,[2],< 10 nM
same,TGI,[2],82.2 nM
same,GI50,[3],10.1 nM
same,TGI,[3],11.3 µM
same,GI50,[4],67.3 nM
same,TGI,[4],8.77 µM
same,GI50,[5],< 10 nM
same,TGI,[5],23.8 nM
same,GI50,[6],< 10 nM
same,TGI,[6],18.9 µM
same,GI50,[8],< 10 nM
same,TGI,[8],1.98 µM
same,GI50,[9],119 nM
same,TGI,[9],0.514 µM
same,GI50,[58],184 nM
same,TGI,[58],9.92 µM
same,GI50,[10],33.5 nM
same,TGI,[10],334 nM
same,GI50,[11],< 10 nM
same,TGI,[11],350 nM
same,GI50,[12],34.4 nM
same,TGI,[12],493 nM
same,GI50,[13],< 10 nM
same,TGI,[13],54.4 nM
same,GI50,[14],31.8 nM
same,TGI,[14],231 nM
same,GI50,[15],130 nM
same,TGI,[15],11 µM
same,GI50,[59],< 10 nM
same,TGI,[59],878 nM
same,GI50,[16],< 10 nM
same,TGI,[16],719 nM
same,GI50,[17],104 nM
same,TGI,[17],2.89 µM
same,GI50,[19],139 nM
same,TGI,[19],3.05 µM
same,GI50,[20],42.3 nM
same,TGI,[20],206 nM
same,GI50,[21],108 nM
same,TGI,[21],348 nM
same,GI50,[22],123 nM
same,TGI,[22],425 nM
same,GI50,[23],19.1 nM
same,TGI,[23],> 100 µM
same,GI50,[24],< 10 nM
same,TGI,[24],142 nM
same,GI50,[25],20.7 nM
same,TGI,[25],82.5 nM
same,GI50,[26],154 nM
same,TGI,[26],381 nM
same,GI50,[27],< 10 nM
same,TGI,[27],< 10 nM
same,GI50,[28],< 10 nM
same,TGI,[28],17 nM
same,GI50,[29],< 10 nM
same,TGI,[29],1.95 µM
same,GI50,[30],50.6 nM
same,TGI,[30],2.58 µM
same,GI50,[31],< 10 nM
same,TGI,[31],79.5 nM
same,GI50,[32],< 10 nM
same,TGI,[32],0.118 µM
same,GI50,[33],< 0.01 µM
same,TGI,[33],1.33 µM
same,GI50,[34],< 10 nM
same,TGI,[34],96.6 nM
same,GI50,[35],179 nM
same,TGI,[35],0.662 µM
same,GI50,[36],64.2 nM
same,TGI,[36],588 nM
same,GI50,[37],< 10 nM
same,TGI,[37],1.21 µM
same,GI50,[38],< 10 nM
same,TGI,[38],38.1 nM
same,GI50,[39],< 10 nM
same,TGI,[39],< 10 nM
same,GI50,[40],< 10 nM
same,TGI,[40],706 nM
same,GI50,[41],< 0.01 µM
same,TGI,[41],0.558 µM
same,GI50,[42],16.9 nM
same,TGI,[42],2300 nM
same,GI50,[43],< 10 nM
same,TGI,[43],11.2 nM
same,GI50,[45],33.8 nM
same,TGI,[45],386 nM
same,GI50,[46],73.6 nM
same,TGI,[46],252 nM
same,GI50,[47],< 10 nM
same,TGI,[47],12.5 µM
same,GI50,[48],194 nM
same,TGI,[48],1.51 µM
same,GI50,[49],58.3 nM
same,TGI,[49],1.13 µM
same,GI50,[60],< 10 nM
same,TGI,[60],113 nM
same,GI50,[50],< 10 nM
same,TGI,[50],< 10 nM
same,GI50,[52],190 nM
same,TGI,[52],6.28 µM
same,GI50,[53],16.4 nM
same,TGI,[53],0.143 µM
same,GI50,[54],19.5 nM
same,TGI,[54],190 nM
same,GI50,[55],239 nM
same,TGI,[55],2.47 µM
same,GI50,[56],12.5 nM
same,TGI,[56],242 nM
